Activity calls are given as the source filed them. How the calls were made is not given here.
Legend:
hERG (Kv11.1, KCNH2) [1] = target: T1, hERG (Kv11.1, KCNH2) (Homo sapiens, UniProt Q12809); experiment: in vitro
Description: MMV: Malaria Box compounds were tested for inhibition of the human ether a go-go related gene (hERG), Kv11.1 channel, using IonWorks 384-well patch clamp electrophysiology at 11.1uM (3 independent assay plates up to 12 cells per concentration).

hERG (Kv11.1, KCNH2) [2] = target: T1, hERG (Kv11.1, KCNH2); experiment: in vitro; remark: listed apart in the source
Description: MMV: Malaria Box compounds were tested for inhibition of the human ether a go-go related gene (hERG), Kv11.1 channel, using IonWorks 384-well patch clamp electrophysiology at 1.1uM (3 independent assay plates up to 12 cells per concentration).

T1 sequence (Q12809 whole entry): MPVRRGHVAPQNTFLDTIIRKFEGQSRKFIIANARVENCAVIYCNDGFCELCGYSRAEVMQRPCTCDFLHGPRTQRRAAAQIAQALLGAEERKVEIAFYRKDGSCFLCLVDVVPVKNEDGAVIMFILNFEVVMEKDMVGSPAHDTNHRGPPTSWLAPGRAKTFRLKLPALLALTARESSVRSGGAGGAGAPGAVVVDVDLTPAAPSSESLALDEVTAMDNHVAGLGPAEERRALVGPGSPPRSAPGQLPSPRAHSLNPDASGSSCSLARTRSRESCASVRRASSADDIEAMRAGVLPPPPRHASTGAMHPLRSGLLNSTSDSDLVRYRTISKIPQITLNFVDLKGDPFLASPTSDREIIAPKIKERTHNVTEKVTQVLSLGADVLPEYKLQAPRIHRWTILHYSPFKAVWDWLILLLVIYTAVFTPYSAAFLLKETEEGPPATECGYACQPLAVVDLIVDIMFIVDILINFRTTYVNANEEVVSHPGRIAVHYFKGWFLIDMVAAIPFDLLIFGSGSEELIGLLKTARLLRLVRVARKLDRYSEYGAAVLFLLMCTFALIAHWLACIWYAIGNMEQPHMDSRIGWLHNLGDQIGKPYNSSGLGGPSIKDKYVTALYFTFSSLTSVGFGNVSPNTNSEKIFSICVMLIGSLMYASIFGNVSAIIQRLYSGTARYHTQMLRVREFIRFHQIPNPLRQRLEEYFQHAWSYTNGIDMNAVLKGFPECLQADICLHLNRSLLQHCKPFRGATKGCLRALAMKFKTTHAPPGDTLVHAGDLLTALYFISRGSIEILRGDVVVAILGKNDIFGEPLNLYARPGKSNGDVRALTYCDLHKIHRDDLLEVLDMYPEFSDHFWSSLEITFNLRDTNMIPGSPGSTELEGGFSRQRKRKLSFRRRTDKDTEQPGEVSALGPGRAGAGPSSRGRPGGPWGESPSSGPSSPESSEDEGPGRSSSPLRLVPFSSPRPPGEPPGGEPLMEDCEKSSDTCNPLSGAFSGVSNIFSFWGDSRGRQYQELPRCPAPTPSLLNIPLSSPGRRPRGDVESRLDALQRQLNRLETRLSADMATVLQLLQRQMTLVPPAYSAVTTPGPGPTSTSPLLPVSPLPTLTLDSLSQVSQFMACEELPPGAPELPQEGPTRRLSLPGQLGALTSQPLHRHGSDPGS

SMILES | inhibition at 11.1 µM (hERG (Kv11.1, KCNH2) [1]) | inhibition at 1.1 µM (hERG (Kv11.1, KCNH2) [2]) [%]
COc1ccc(-n2ccnc2SCC(=O)Nc2cc(C)ccc2C)c(OC)c1 | 29% | 5
CCN1CCN(Cc2ccc(NC(=O)c3cc4ccc5cccnc5c4[nH]3)cc2)CC1 | 106% (active) | 41
COc1cccc(Nc2nc(NCCO)c3ccccc3n2)c1 | 57% (active) | 18
COc1ccc(C(=O)Nc2ccc3nc(N4CCCCC4)cc(C)c3c2)cc1OC | 96% | 63
COCCNCC(O)Cn1c2ccc(Cl)cc2c2cc(Cl)ccc21 (stereo unspecified) | 83% (active) | 14
COc1ccc(N2CCN(C(CNC(=O)C3CCCCC3)c3ccc4c(c3)OCO4)CC2)cc1 (stereo unspecified) | 51% (active) | 17
O=C(NC1CCN(Cc2ccccc2)CC1)c1cc(-c2ccncc2)nc2ccc(Cl)cc12 | 72% (active) | 14
COc1cccc(Nc2nc(N)c3ccccc3n2)c1 | 9% (inactive) | 10
CCC(O)c1ccc(Br)cc1NC(=O)c1cccc(Cl)c1 (stereo unspecified) | 22% (inactive) | 13
CN(C)CCCNCc1ccc(-c2ccc(F)c(Cl)c2)o1 | 48% | 3
Cn1c(=O)c2cc(C(=O)NCCCN3CCCCCC3)sc2c2ccccc21 | 6% (inactive) | -5
Cc1[nH]c(-c2ccc(F)cc2)cc1C(=O)NC1CCN(Cc2ccccc2)CC1 | 96% | 55
Cc1sc2ncnc(Sc3nc4ccccc4[nH]3)c2c1C | 16% (inactive) | 8
CC1CN(C(=O)c2sc3ccccc3c2Cl)CC(C)O1 (stereo unspecified) | 10% (inactive) | 4
Oc1ccccc1CN1CCN(C(c2ccccc2)c2ccccc2)CC1 | 12% (inactive) | 13
c1ccc2c(NCCCCCCNc3c4c(nc5ccccc35)CCCC4)c3c(nc2c1)CCCC3 | 102% (active) | 36
CCC1(C)CC(CCNCc2ccccc2O)(c2ccc(C)cc2)CCO1 (stereo unspecified) | 73% (active) | 2
O=C(NCCCN1CCC(N2CCCCC2)CC1)C1=Cc2cc(Br)ccc2OC1 | 89% (active) | 5
O=C(NC1CCN(Cc2ccccc2)CC1)c1cc(C(=O)NC2CCN(Cc3ccccc3)CC2)cc(C(=O)NC2CCN(Cc3ccccc3)CC2)c1 | 39% | -2
CCN1CCN(c2cc(C)c3cc(NC(=O)c4ccc(OC)c(OC)c4)ccc3n2)CC1 | 63% (active) | 15
Fc1ccc2[nH]c3c(NCCCN4CCOCC4)ncnc3c2c1 | 77% (active) | 24
CC(=O)Nc1nnc(SCc2c(C)cc(C(C)(C)C)cc2C)s1 | 6% (inactive) | 0
Cc1ccc(Cl)cc1N1CCN(CCCNC(=O)C2CCN(c3nc4ccccc4[nH]3)CC2)CC1 | 99% | 54
COc1ccc(-c2cn3c(C(=O)Nc4ccccc4Cl)c(-c4ccccc4)c4c3n2CCCC4)cc1 | 56% (active) | 17
COc1ccc(C(=O)Nc2nonc2-c2ccc(OC)c(OC)c2)cc1Cl | 9% (inactive) | 7
O=C(Nc1ccc(CN2CCOCC2)cc1)c1ccc(-c2cc(Cl)ccc2Cl)o1 | 88% (active) | 8
Oc1ccc2ccccc2c1CNc1nc2ccccc2[nH]1 | 21% (inactive) | -5

SMILES | inhibition at 11.1 µM (hERG (Kv11.1, KCNH2) [1]) | inhibition at 1.1 µM (hERG (Kv11.1, KCNH2) [2]) [%]
COc1ccc(C2NCCc3c2[nH]c2ccccc32)cc1CN1CCN(c2ccc(F)cc2)CC1 (stereo unspecified) | 113% (active) | 18
Cc1cccc(Nc2nc(N)c3ccccc3n2)c1 | 49% | 15
COc1cccc(C(=O)Nc2ccc(-c3nc4ccccc4[nH]3)cc2)c1 | 5% (inactive) | 4
CCn1c(CN2CCN(Cc3ccccc3)CC2)nc2cc(NC(=O)c3cccs3)ccc21 | 100% | 71
O=C(NC1CCN(Cc2ccccc2)CC1)c1cc(-c2cccnc2)nc2ccc(Cl)cc12 | 86% (active) | 18
CCN(Cc1ccccc1)C1CCN(Cc2cc(Br)ccc2O)CC1 | 96% (active) | 18
Nc1ccc(-c2nc3cc(Oc4ccc(Oc5ccc6[nH]c(-c7ccc(N)cc7)nc6c5)cc4)ccc3[nH]2)cc1 | 23% (inactive) | 18
Cc1ccc(C)c(Cn2c(N3CCC(C(=O)NCc4cccs4)CC3)nc3ccccc32)c1 | 84% (active) | 16
CCOc1cccc(C(=O)Nc2ccc(-c3nc4ccccc4[nH]3)cc2)c1 | -7% (inactive) | 0
Cc1cc(N(C)C)nc(Nc2ccc(NC(=O)Nc3ccccc3)cc2)n1 | -1% (inactive) | 2
Clc1cc(Br)ccc1-c1ccc(CNCC2CCNCC2)o1 | 83% (active) | 16
COc1ccc(-c2nonc2NC(=O)c2cccc(Cl)c2)cc1OC | -4% (inactive) | 4
Cc1cc(NC(=O)c2ccc(-c3ccccc3)cc2)no1 | 12% (inactive) | -2
COc1cccc(-c2nn(C)c3sc(C(=O)NCCN4CCN(c5ccccc5F)CC4)cc23)c1 | 91% (active) | 21
Oc1ccccc1CNCC12CC3CC(CC(C3)C1)C2 | 41% | 20
CNCCCNc1ccnc2cc(Cl)ccc12 | 21% (inactive) | -1
COc1cc(-c2nc(-c3ccccc3)c(-c3ccccc3)[nH]2)cc(OC)c1O | 18% (inactive) | 11
COc1ccccc1CNC(=O)CCn1c(=O)[nH]c2ccsc2c1=O | 5% (inactive) | -1
O=C(Nc1ccc(N2CCN(Cc3ccccc3)CC2)cc1)c1cccs1 | 32% | 12
COc1ccc(Br)cc1C1Nc2ccc3ccccc3c2C2=C1C(=O)CC(c1ccccc1)C2 (stereo unspecified) | 5% (inactive) | -2
O=C(Nc1ccc(-c2nc3cc4ccccc4cc3[nH]2)cc1)c1cccc(Br)c1 | -2% (inactive) | -1
Cc1ccc(-c2nc3ccccc3o2)cc1NCc1cc(Cc2ccccc2)ccc1O | 10% (inactive) | 11
O=C(Nc1ccc(N2CCCCC2)c(Cl)c1)c1ccc(Br)o1 | 41% | -3
Cc1cc(C)c2nc(N3CCC(C(=O)NCCCN4CCC(N5CCCCC5)CC4)CC3)sc2c1 | 60% (active) | 18
CC1CCN(Cc2ccc(NC(=O)c3cc4ccc5cccnc5c4[nH]3)cc2)CC1 | 101% | 64
CCOC(=O)C1CCN(C(=O)CN2C(=O)c3ccccc3C2c2c[nH]c3ccccc23)CC1 (stereo unspecified) | 18% (inactive) | -9

Reference: ChEMBL document CHEMBL3301458, “MMV Malaria Box hERG screening”
